Molecules are shown by their SMILES.

Data set [1] is described as follows: ulcer healing / antiulcer activity, general statement (test not specified). The data set is classed as in vivo.
Data set [2] has as its system histamine ulcers of guinea pigs. The data set can be described thus: histamine type of ulcer of guinea pigs (method of Eagleton and Watt). The data set is classed as in vivo. The note with it: oral, histamine diphosphate 5 mg/kg. Here is the method:
The testing of the histamine type of ulcer of guinea pigs is carried out for example by the method of Eagleton and Watt (Peptic Ulcer, Pfeiffer, Munksgaard, Copenhagen, printed in Denmark by Aarhuus, Stiftsbogtrykkerie A/S Arhus ISBN 8716003225 pages 34-44). The entire disclosure of the Eagleton and Watt article is hereby incorporated by reference and relied upon. There were employed predominantly male guinea pigs weighing 300 to 400 grams and the test substance was applied orally after 24 hour feeding intervals and 12 hours deprivation of drinking water. One hour after giving the substance the guinea pigs were given the injection of histamine diphosphate (histamine acid phosphate) at a dosage of 5 mg/kg (the histamine diphosphate was employed in aqueous solution at a concentration of 1 mg histamine disphosphate/ml). The histamine diphosphate was injected introperitoneally. Three hours after the injection of histamine the animals were killed with CO2. The stomachs were resected and cut open along the small curvature and turned upside down over the examination finger. The ulcers were evaluated according to Munchow (Arzneimittelforschung Vol. 4 (1954 pages 341-344).
The calculated control index must in the order of magnitude between 5 and 15.

For data set [3], the system named is indometacin ulcer of rats. Description: indometacin ulcer of rats (method of John and Adrian modified by Wilhelmi). Type of data set: in vivo, Albino rats of the strain SIV 50. The note with it: for ULCER PROTECTING EFFECT: indometacin 20 mg/kg, 24 h. Here is the method: These tests were carried out according to the method of John and Adrian modified by Wilhelmi on the indometacin ulcer of rats (see Arzeimittelforschung Vol. 19 (1969) pages 45 et seq.).
The determination is carried out in the following manner.
Albino rats of the strain SIV 50 (S. Ivanovas, Kisslegg/allgau) having an initial weight of 250 to 300 grams were held in controlled temperature rooms at 20° to 22°C. in wire cages (Ebeco, Type 3 double width) on a standard diet (Altromin). After 48 hour feeding intervals the animals received 20 mg/kg rat of indometacin in 1.5% tragacanth (1 ml tragacanth solution per 100 grams of rat) applied introgastrally.
One hour after giving the indometacin there was dispensed orally to the animals the test substance. The rats remain otherwise fasting (water ad libitum)
Twenty four hours after giving the indometacin the animals were killed with […]. The stomach was resected, opened along the great curvature and washed under flowing water.
The ulcerative changes appear as dark, point or stria shaped spots on the mucosa. The evaluation was done according to the method of Munchow Arneimittedforschung Vol. 4 (1954) pages 341-344.

The nature of data set [4]: acute toxicity in the mouse (method of Miller and Tainter). The note with it: in vivo, oral application. The method, then: The acute toxicity of the compound of the invention in the mouse (expressed by LD50 mg/kg; method of Miller and Tainter; Proc. Soc. Exper. Biol. a. Med. Vol 57 (1944) pages 261 et seq.) on oral application, for example is above 6000 mg/kg.
The nature of data set [5]: central nervous system influencing activity.
Data set [6] in a line: muscle relaxing activity.

For the compound `C=C1CC[C@@]2(OC1)O[C@H]1C[C@H]3[C@@H]4CC=C5C[C@@H](O)C[C@@H](O)[C@]5(C)[C@H]4[C@H](O)C[C@]3(C)[C@H]1[C@@H]2C` [Helleborus main sapogenin, spiro-5,25(27)-diene-1β,3β,11α-triol], the “antiulcer activity compared with Biogastrone” value in data set [1] (comparison with the known medicine Biogastrone) was “comparable to the activity of the known medicine Biogastrone”. In addition, the ulcer healing activity entry in data set [1] (in vivo) is “has an ulcer healing activity”. Further, the anti-ulcer activity entry in data set [2] is “good anti-ulcer activity”; in data set [3] (indometacin ulcers of rats, oral) it was “good anti-ulcer activity”. Also, the “ULCER PROTECTING EFFECT” value in data set [3] (daily dosage 50 mg/kg, oral) was 58%; in data set [3] (daily dosage 100 mg/kg, oral), 78%; in data set [3] (daily dosage 200 mg/kg, oral), 80%. Besides, the minimal effective dose in data set [3] (po, orally, above mentioned animal experiments (indometacin ulcers of rats, histamine ulcers of guinea pigs), read-out: lowest effective dosage) stood at 50 mg/kg. The LD50 in data set [4] was above 6000 mg/kg. The “central nervous system influencing activity” value in data set [5] is recorded as “central nervous system influencing activity has been established”. In addition, the muscle relaxing activity entry in data set [6] is listed as “muscle relaxing”.

Values taken from US3956491A, “Medicine containing the main sapogenin of helleborus” (priority 1974, dated 1976).
